Where a SMILES comes first, the peptide text is derived from it. The star is where a group is joined. βNA = c1ccc2cc(N*)ccc2c1; Cbz = O=C(OCc1ccccc1)*; Bz = O=C(c1ccccc1)*
Tests used:
Actinomyces israelli [1] = experiment: Hydrolytic activity of cell suspension, substrates alone or in combination (Experiment 3); type: cell-based; conditions: two strains, Table 3
Procedure: (§1) The strains of Treponema were anaerobically cultivated using TYGVS media at 37° C. for 7 days, while other bacterial strains were cultivated using brain heart infusion broth at 37° C. for 48 to 72 hours. Each culture was diluted to obtain a bacterial cell suspension, the absorption at 660 nm of which was 1.0.
(§2) Substrate compounds for aminopeptidase enzyme having various color developing groups derived from β-naphthylamine were dissolved in 0.1M Tris-HCl buffer (pH 7.0) at the concentration of 0.2 mM to obtain substrate solutions.
(§3) To the substrate solution (1.5 ml) was added the above cell suspension (0.3 ml) and reacted at 37° C. for 60 minutes. After completion of the reaction, a coloring reagent [prepared by dissolving diazonium salt of Garnet GBC in 1M acetate buffer (containing 10% Tween 20, pH: 4.2) at the concentration of 0.5 mg/ml] was added and, after 15 minutes, the absorption at 525 nm was determined with a spectrophotometer.
(§4) On the basis of the average amount of released β-naphthylamine in each strain, the hydrolytic activity was expressed as follows: […]
(§5) According to the same manner as described in Experiment 1, periodontopathic bacteria specific aminopeptidase activity was tested by using four strains of Treponema denticola, five strains of B. gingivalis, four strains of Actinobacillus actinomycetemcomitans, two strains of Actinomyces israelli and three strains of Fusobacterium nucleatum. Abbreviations in Table 3 are the same as those in Tables 1 and 2. Hydrolytic activity "+++" means "40≤release amount<80 nmol/ml" and "++++" means "release amount≥80 nmol/ml".

Treponema denticola [2] = experiment: as above; type: cell-based; conditions: four strains, Table 3
Procedure: as §1, §2, §3, §4, §5

[3] = tested on: Actinobacillus actinomycetemcomitans; experiment: as above; type: cell-based; conditions: four strains, Table 3
Procedure: as §1, §2, §3, §4, §5

Fusobacterium nucleatum [4] = experiment: as above; type: cell-based; conditions: three strains, Table 3
Procedure: as §1, §2, §3, §4, §5

B. gingivalis [5] = experiment: as above; type: cell-based; conditions: five strains, Table 3
Procedure: as §1, §2, §3, §4, §5

[6] = tested on: periodontopathic bacteria specific aminopeptidase activity; experiment: Hydrolytic activity of gingival crevicular fluid specimens, OD525 (Experiment 6); type: biochemical
Procedure: as §2, §3
Specimens of gingival crevicular fluid were collected with paper points from five subjects who were considered to be healthy from their clinical state, six subjects with gingivitis and six subjects with periodontitis. Each specimen was dispersed in Ringer's solution (1.5 ml), and the relative amount of spirochete to total bacteria: [formula] was determined with a phase contrast microscope. Further, the Ringer's solution (0.3 ml) was tested for hydrolytic activity using the substrate solution prepared in the same manner as described in Experiment 1. As substrates, there were used compounds of the formula [1], i.e., N-benzoylvalyl-glycyl-arginine-β-naphthylamide (BzVGR) and N-carbobenzoxy-valyl-glycyl-arginine-β-naphthylamide (CxVGR) were used.
According to the same manner as described in Experiment 4, hydrolytic activity was tested by using the compounds of the formulas and [2], i.e., glycyl-proline-βnaphthylamide (GP), N-benzoyl-arginyl-glycyl-phenylalanylproline-β-naphthylamide (BzRGFP), N-carbobenzoxy-valylglycyl-arginine-β-naphthylamide (CxVGR) and N-benzoylglycyl-arginine-β-naphthylamide (BzGR) alone or in combination. Hydrolytic activity was determined by measuring absorption at 525 nm (OD525) and expressed as follows.

Treponema denticola [7] = experiment: Hydrolytic activity of oral anaerobe cell suspension on aminopeptidase substrates (Experiment 1); type: cell-based; conditions: four strains, substrate 0.2 mM, pH 7.0, 37° C., 60 minutes, Table 1
Outline: (§6)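 Treponema grown anaerobically in TYGVS (37 °C, 7 days) and other strains in brain heart infusion (37 °C, 48–72 h), then diluted to A660 1.0. Cells reacted 60 min at 37 °C with β-naphthylamine-derived substrates (0.2 mM solution, 0.1 M Tris-HCl pH 7.0). Garnet GBC coupling, A525 after 15 min; activity graded from mean released β-naphthylamine per strain.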

Bacteroides gingivalis = experiment: as above; type: cell-based; conditions: five strains, substrate 0.2 mM, pH 7.0, 37° C., 60 minutes, Table 1
Outline: as §6

[8] = tested on: Actinobacillus actinomycetemcomitans; experiment: as above; type: cell-based; conditions: four strains, substrate 0.2 mM, pH 7.0, 37° C., 60 minutes, Table 1
Outline: as §6

Capnocytophaga sp. = experiment: as above; type: cell-based; conditions: four strains, substrate 0.2 mM, pH 7.0, 37° C., 60 minutes, Table 1
Outline: as §6

Fusobacterium nucleatum [9] = experiment: as above; type: cell-based; conditions: three strains, substrate 0.2 mM, pH 7.0, 37° C., 60 minutes, Table 1
Outline: as §6

Actinomyces israelli [10] = experiment: Hydrolytic activity of cell suspension on aminopeptidase substrates (Experiment 2); type: cell-based; conditions: two strains, Table 2
Outline: (§7)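 Cell suspensions (A660 = 1.0; Treponema grown 7 days in TYGVS, others 48–72 h in BHI, 37 °C) were incubated with 0.2 mM β-naphthylamide substrates in 0.1 M Tris-HCl pH 7.0 for 60 min at 37 °C. Released β-naphthylamine detected with Garnet GBC at 525 nm and scored from strain averages.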

Treponema denticola [11] = experiment: as above; type: cell-based; conditions: four strains, Table 2
Outline: as §7

B. denticola = experiment: as above; type: cell-based; conditions: Table 2
Outline: as §7

B. corporis = experiment: as above; type: cell-based; conditions: Table 2
Outline: as §7

[12] = tested on: Actinobacillus actinomycetemcomitans; experiment: as above; type: cell-based; conditions: four strains, Table 2
Outline: as §7

B. intermedius = experiment: as above; type: cell-based; conditions: three strains, Table 2
Outline: as §7

Fusobacterium nucleatum [13] = experiment: as above; type: cell-based; conditions: three strains, Table 2
Outline: as §7

B. melaninogenicus = experiment: as above; type: cell-based; conditions: two strains, Table 2
Outline: as §7

B. gingivalis [14] = experiment: as above; type: cell-based; conditions: five strains, Table 2
Outline: as §7

[15] = Gingivitis subject 1 (spirochete 7.3 %)
[16] = Gingivitis subject 2 (spirochete 16.7 %)
[17] = Gingivitis subject 3 (spirochete 20.5 %)
[18] = Gingivitis subject 4 (spirochete 6.8 %)
[19] = Gingivitis subject 5 (spirochete 7.3 %)
[20] = Healthy subject 1 (spirochete 0.1 %)
[21] = Healthy subject 3 (spirochete 1.1 %)
[22] = Healthy subject 4 (spirochete 0.6 %)
[23] = Healthy subject 5 (spirochete 1.3 %)
[24] = Periodontitis subject 1 (spirochete 45.2 %)
[25] = Periodontitis subject 2 (spirochete 30.3 %)
[26] = Periodontitis subject 3 (spirochete 34.6 %)
[27] = Periodontitis subject 4 (spirochete 21.2 %)
[28] = Periodontitis subject 5 (spirochete 40.3 %)
[29] = Periodontitis subject 6 (spirochete 35.1 %)

hydrolytic activity, absorption at 525 nm (OD525) [6, 15]	hydrolytic activity, absorption at 525 nm (OD525) [6, 16]	hydrolytic activity, absorption at 525 nm (OD525) [6, 17]	hydrolytic activity, absorption at 525 nm (OD525) [6, 18]	hydrolytic activity, absorption at 525 nm (OD525) [6, 19]	hydrolytic activity, absorption at 525 nm (OD525) [6, 20]	hydrolytic activity, absorption at 525 nm (OD525) [6, 21]	hydrolytic activity, absorption at 525 nm (OD525) [6, 22]	hydrolytic activity, absorption at 525 nm (OD525) [6, 23]	hydrolytic activity, absorption at 525 nm (OD525) [6, 24]	hydrolytic activity, absorption at 525 nm (OD525) [6, 25]	hydrolytic activity, absorption at 525 nm (OD525) [6, 26]	hydrolytic activity, absorption at 525 nm (OD525) [6, 27]	hydrolytic activity, absorption at 525 nm (OD525) [6, 28]	hydrolytic activity, absorption at 525 nm (OD525) [6, 29]	SMILES	hydrolytic activity (release amount) (Actinomyces israelli [1])	hydrolytic activity (release amount) (Treponema denticola [2])	hydrolytic activity (release amount) [3]	hydrolytic activity (release amount) (Fusobacterium nucleatum [4])	hydrolytic activity (release amount) (B. gingivalis [5])	other results
+ (0.1≤OD525 <0.2)	+ (0.1≤OD525 <0.2)	++ (0.2≤OD525 <0.4)	- (OD525 <0.1)	- (OD525 <0.1)	- (OD525 <0.1)	- (OD525 <0.1)	- (OD525 <0.1)	- (OD525 <0.1)	++ (0.2≤OD525 <0.4)	++ (0.2≤OD525 <0.4)	++ (0.2≤OD525 <0.4)	++ (0.2≤OD525 <0.4)	++ (0.2≤OD525 <0.4)	++ (0.2≤OD525 <0.4)	N=C(N)NCCC[C@H](NC(=O)CNC(=O)c1ccccc1)C(=O)Nc1ccc2ccccc2c1 [BzGR, N-benzoyl-glycyl-arginine-β-naphthylamide] (Bz-Gly-Arg-βNA)	- (release amount<5 nmol/ml)	++ (20 ≤release amount<40 nmol/ml)	- (release amount<5 nmol/ml)	- (release amount<5 nmol/ml)	+++ (40≤release amount<80 nmol/ml)	hydrolytic activity (average amount of released β-naphthylamine) (Treponema denticola [7]): ++ (20 ≤release amount<40 nmol/ml); hydrolytic activity (average amount of released β-naphthylamine) (Bacteroides gingivalis): +++ (release amount≥40 nmol/ml); hydrolytic activity (average amount of released β-naphthylamine) [8]: - (release amount<5 nmol/ml); hydrolytic activity (average amount of released β-naphthylamine) (Capnocytophaga sp.): - (release amount<5 nmol/ml); hydrolytic activity (average amount of released β-naphthylamine) (Fusobacterium nucleatum [9]): - (release amount<5 nmol/ml)
–	–	–	–	–	–	–	–	–	–	–	–	–	–	–	NCCCC[C@H](NC(=O)OCc1ccccc1)C(=O)N1CCC[C@H]1C(=O)Nc1ccc2ccccc2c1 [CxKP, N-carbobenzoxy-lysyl-proline-β-naphthylamide] (Cbz-Lys-Pro-βNA)	- (release amount<5 nmol/ml)	+ (10 ≤release amount<20 nmol/ml)	- (release amount<5 nmol/ml)	- (release amount<5 nmol/ml)	++ (20 ≤release amount<40 nmol/ml)	hydrolytic activity (average amount of released β-naphthylamine) (Actinomyces israelli [10]): - (release amount<5 nmol/ml); hydrolytic activity (average amount of released β-naphthylamine) (Treponema denticola [11]): + (10 ≤release amount<20 nmol/ml); hydrolytic activity (average amount of released β-naphthylamine) (B. denticola): ++ (20 ≤release amount<40 nmol/ml); hydrolytic activity (average amount of released β-naphthylamine) (B. corporis): ++ (20 ≤release amount<40 nmol/ml); hydrolytic activity (average amount of released β-naphthylamine) [12]: - (release amount<5 nmol/ml); hydrolytic activity (average amount of released β-naphthylamine) (B. intermedius): ++ (20 ≤release amount<40 nmol/ml); hydrolytic activity (average amount of released β-naphthylamine) (Fusobacterium nucleatum [13]): - (release amount<5 nmol/ml); hydrolytic activity (average amount of released β-naphthylamine) (B. melaninogenicus): ++ (20 ≤release amount<40 nmol/ml); hydrolytic activity (average amount of released β-naphthylamine) (B. gingivalis [14]): ++ (20 ≤release amount<40 nmol/ml)
+ (0.1≤OD525 <0.2)	+ (0.1≤OD525 <0.2)	++ (0.2≤OD525 <0.4)	- (OD525 <0.1)	- (OD525 <0.1)	- (OD525 <0.1)	- (OD525 <0.1)	- (OD525 <0.1)	- (OD525 <0.1)	+++ (0.4≤OD525 <0.8)	+++ (0.4≤OD525 <0.8)	+++ (0.4≤OD525 <0.8)	++ (0.2≤OD525 <0.4)	+++ (0.4≤OD525 <0.8)	+++ (0.4≤OD525 <0.8)	NCC(=O)N1CCC[C@H]1C(=O)Nc1ccc2ccccc2c1 [GP, glycyl-proline-β-naphthylamide] (H-Gly-Pro-βNA)	- (release amount<5 nmol/ml)	++ (20 ≤release amount<40 nmol/ml)	- (release amount<5 nmol/ml)	- (release amount<5 nmol/ml)	+++ (40≤release amount<80 nmol/ml)	hydrolytic activity, absorption at 525 nm (OD525) ([6]; Gingivitis subject 6 (spirochete 14.4 %)): + (0.1≤OD525 <0.2); hydrolytic activity (average amount of released β-naphthylamine) (Actinomyces israelli [10]): - (release amount<5 nmol/ml); hydrolytic activity (average amount of released β-naphthylamine) (Treponema denticola [11]): ++ (20 ≤release amount<40 nmol/ml); hydrolytic activity (average amount of released β-naphthylamine) (B. denticola): - (release amount<5 nmol/ml); hydrolytic activity (average amount of released β-naphthylamine) (B. corporis): ++ (20 ≤release amount<40 nmol/ml); hydrolytic activity (average amount of released β-naphthylamine) [12]: - (release amount<5 nmol/ml); hydrolytic activity (average amount of released β-naphthylamine) (B. intermedius): + (10 ≤release amount<20 nmol/ml); hydrolytic activity (average amount of released β-naphthylamine) (Fusobacterium nucleatum [13]): - (release amount<5 nmol/ml); hydrolytic activity (average amount of released β-naphthylamine) (B. melaninogenicus): ++ (20 ≤release amount<40 nmol/ml); hydrolytic activity (average amount of released β-naphthylamine) (B. gingivalis [14]): +++ (release amount≥40 nmol/ml)
